From patent US20260345649A1, “PHARMACEUTICAL COMPOSITION FOR DESTRUCTION OF TUMOR BLOOD VESSELS” (SAMSUNG MEDICAL FOUNDATION, priority 2022, published 2026)

How the values were obtained:
HUVEC = assay: 5-FU cytotoxicity on HUVEC according to D-glucose or L-glucose concentration (MTS); assay type: cell-based, human
Description: An MTS cell proliferation assay was conducted to evaluate the cytotoxic effect of 5-FU on HUVEC according to D-glucose concentration under different pH conditions.
The cells were then incubated for an additional 24 hours in DMEM medium containing various concentrations of glucose.
To assess the cytotoxic effect of L-glucose on HUVEC, the experiment was conducted in the same manner as described in Example 2, Section 3.
To assess the cytotoxic effect of D-glucose or L-glucose on HUVEC, the experiment was conducted in the same manner as described in Example 2, Section 3.

HUVECs [1] = assay: LDH release assay in HUVECs; assay type: cell-based, human; conditions: 1 mM, 5 mM, and 10 mM 5-FU, time-dependent, P<0.05, FIG. 4
Description: It has been generally reported that an increase in the expression of thrombospondin-1 (TSP-1) and thrombospondin-2 (TSP-2) induces apoptosis in endothelial cells. To investigate whether the administration of 5-fluorouracil (5-FU) enhances apoptosis in endothelial cells, an LDH release assay was conducted in human umbilical vein endothelial cells (HUVECs). Cytotoxicity was assessed based on the amount of lactate dehydrogenase (LDH) released due to cell membrane damage. The released LDH was quantified using an LDH assay kit (EZ-LDH1000; DoGenBio, Seoul, Korea) according to the manufacturer's protocol.
HUVECs (5×10^4 cells/well) were seeded in a 96-well polystyrene plate and incubated at 37 °C for 24 hours. LDH substrate was added to each well, followed by an additional incubation at 37 °C for 10 minutes. The plate was centrifuged at 600 g for 5 minutes. A 10-μL aliquot of the supernatant was transferred from the culture plate wells to an analysis plate. Subsequently, 100 μL of LDH reaction mixture reagent was added to the supernatant in each well of the analysis plate. After a 30-minute reaction, absorbance was measured at 450 nm using a microplate reader (Model 680; Bio-Rad). The cytotoxicity of 5-FU on HUVECs was determined based on the amount of LDH released.

HUVECs [2] = assay: MTS cell proliferation assay, 5-FU cytotoxicity in HUVECs at different pH; assay type: cell-based, human; conditions: FIG. 5
Description: To evaluate the cytotoxic effect of 5-fluorouracil (5-FU) in human umbilical vein endothelial cells (HUVECs) under different pH conditions, an MTS cell proliferation assay was performed.
Subsequently, the cells were cultured for an additional 24 hours in Dulbecco's Modified Eagle's Medium (DMEM) containing 5-FU at different pH conditions (pH 6.4, 7.4, 8.4, and 9.0). Following the incubation, the cells were washed twice with phosphate-buffered saline (PBS), after which 100 μL of fresh DMEM growth medium was added, followed by an additional 48-hour incubation. […] After an additional 2-hour incubation, the absorbance was measured at 490 nm using a microplate reader (Model 680, BIO-RAD; Spark, TECAN, CA, USA).

[3] = test system: human gastric cancer cells; assay: Human gastric cancer cell xenograft in nude mice, alkaline 5-FU injected adjacent to tumor; assay type: in vivo, nude mice (Crj: BALB/c-nu/nu), human tumor cells; conditions: 5 mg 5-FU pH 8.4, three times at one-week intervals, 4 weeks, P<0.05, FIG. 8
Description: The animals used in the experiment were six male nude mice (Crj: BALB/c-nu/nu mice, male) aged five weeks and weighing approximately 30 grams, purchased from Orient. The mice were subjected to a one-week acclimation period in the laboratory before use. Each nude mouse was subcutaneously xenografted with 5×10^6 human gastric cancer cells suspended in 100 μL of PBS on the dorsal subcutaneous layer. The tumor size was periodically measured, and when it reached a diameter of 1 cm, the drug administration experiment was conducted.
The experimental animals were divided into two groups. One group served as the control group, receiving only physiological saline, while the other group was administered 5 mg of 5-FU at pH 8.4. The drug was injected 0.2 cc adjacent to the tumor three times at one-week intervals. After one month, the major and minor axes of the tumors growing on the dorsal epidermis were measured.

[4] = test system: thrombospondin-1 (TSP-1) in HUVEC; assay: TSP-1 protein expression in HUVEC by Western blot; assay type: cell-based, human; conditions: prolonged exposure and higher drug concentrations of 5-FU, FIG. 3
Description: Thrombospondin (TSP) is a macromolecule with various functions, and among its isoforms, TSP-1 acts as an angiogenesis inhibitor. The following experiment was conducted to examine changes in TSP-1 expression in response to different concentrations of 5-FU.
Western blot analysis was conducted to confirm the expression of TSP-1 protein in the HUVEC (human umbilical vein endothelial cell) cell line.
HUVECs cultured in petri dishes were lysed using a buffer containing 50 mM Tris (pH 8.0), 150 mM NaCl, 1% Nonidet P-40, 0.5% sodium deoxycholate (SDC), 0.1% sodium dodecyl sulfate (SDS), and 1× protease inhibitor cocktail. The lysates were incubated on ice for 30 minutes, followed by centrifugation at 14,000 g for 10 minutes to collect the supernatant.
Protein quantification was performed using a bicinchoninic acid (BCA) protein assay kit (Pierce Chemical, Rockford, IL, USA). A total of 30 μg of protein was subjected to electrophoresis on a 10% SDS-polyacrylamide gel and subsequently transferred onto a nitrocellulose membrane. The membrane was blocked with blocking milk for 1 hour, then incubated with the same TSP-1 antibody used for immunostaining at room temperature for 1 hour. After three washes with Tris buffer containing 0.1% Tween 20 at 15-minute intervals, the membrane was incubated with a secondary antibody specific to the primary antibody at room temperature for 1 hour. […]

patients = conditions: cited from earlier work

O=c1[nH]cc(F)c(=O)[nH]1 [5-FU, 5-fluorouracil]
cell viability upon addition of 5-FU (HUVEC; 5-FU added to L-glucose 5 mM and 25 mM, FIG. 14): further decreased cell viability
cell viability upon addition of 5-FU (HUVEC; 5-FU under different pH conditions added to D-glucose 5 mM and 25 mM, FIG. 13): further decrease in cell viability
amount of released LDH (HUVECs [1]): significantly increased
cytotoxicity under alkaline conditions compared to neutral or acidic 5-FU (HUVECs [2]): significantly greater toxicity
cytotoxic effect according to pH (HUVECs [2]; pH 6.4, 7.4, 8.4, and 9.0, 24 hours): increased as the alkalinity of the drug became stronger
tumor size compared to before injection [3]: significantly reduced
TSP-1 expression levels [4]: increased expression levels
myelosuppression and gastrointestinal toxicity (patients; due to phosphorylation in the gastrointestinal tract, damage to normal cells): frequent myelosuppression and gastrointestinal toxicity
adverse effects on intravenous administration (patients; intravenous): associated with adverse effects such as thrombosis
incidence of severe and potentially life-threatening cardiotoxicity (patients; reported cases): 1.5% to 18
